Series [1] addresses T1, human TLR7 (Homo sapiens, UniProt Q9NYK1).
T1 sequence (Q9NYK1 27-1049): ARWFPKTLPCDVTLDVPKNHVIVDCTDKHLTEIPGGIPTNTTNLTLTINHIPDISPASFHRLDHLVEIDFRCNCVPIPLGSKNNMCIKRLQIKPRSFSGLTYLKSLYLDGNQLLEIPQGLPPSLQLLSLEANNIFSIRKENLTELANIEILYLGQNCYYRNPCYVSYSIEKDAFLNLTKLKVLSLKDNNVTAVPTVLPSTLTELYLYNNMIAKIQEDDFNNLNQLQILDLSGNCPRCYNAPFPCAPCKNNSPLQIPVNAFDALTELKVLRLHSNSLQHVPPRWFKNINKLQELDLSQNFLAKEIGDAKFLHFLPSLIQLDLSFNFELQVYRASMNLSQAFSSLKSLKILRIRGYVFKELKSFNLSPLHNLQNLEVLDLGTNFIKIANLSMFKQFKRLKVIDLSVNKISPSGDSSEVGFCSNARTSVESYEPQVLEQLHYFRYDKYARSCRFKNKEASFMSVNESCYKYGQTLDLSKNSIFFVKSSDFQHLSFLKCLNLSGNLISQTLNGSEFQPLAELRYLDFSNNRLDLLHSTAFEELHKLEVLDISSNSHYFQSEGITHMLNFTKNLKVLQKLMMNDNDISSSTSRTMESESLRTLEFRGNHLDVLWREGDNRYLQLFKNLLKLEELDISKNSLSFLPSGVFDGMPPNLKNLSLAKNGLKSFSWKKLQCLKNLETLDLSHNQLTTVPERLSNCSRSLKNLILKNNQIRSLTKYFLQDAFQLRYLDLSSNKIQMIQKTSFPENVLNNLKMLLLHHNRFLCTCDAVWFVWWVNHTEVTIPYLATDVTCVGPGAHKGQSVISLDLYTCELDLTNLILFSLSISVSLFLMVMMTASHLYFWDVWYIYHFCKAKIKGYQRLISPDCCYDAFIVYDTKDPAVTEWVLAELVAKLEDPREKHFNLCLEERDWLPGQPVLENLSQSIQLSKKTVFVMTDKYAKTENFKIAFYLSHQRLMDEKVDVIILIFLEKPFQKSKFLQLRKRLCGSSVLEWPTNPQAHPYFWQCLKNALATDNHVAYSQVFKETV
In words: HEK293-hTLR7 NF-kB luciferase reporter (C23) assay. Conditions: read-out: mean fold induction of luciferase activity compared to the no drug control. On the procedure: A stable HEK293-hTLR7 cell line was obtained from Invivogen (San Diego, Calif.), transfected with pNiFty2-Luc, an NF-kB inducible luciferase reporter plasmid (Invivogen) and (dual) stable transfectants selected. The resultant dual (hTLR7/pNiFty2-Luc) cell lines were functionally tested by response to loxoribine and isatoribine as measured by fold luciferase induction relative to a no drug control. […] See, e.g., Hemmi H. et al., Nat.
For a typical C23 assay, cells are seeded at 6×10^4 cells/well in 96 well plates and 4-24 hours later are treated with various concentrations of compound. After 2-48 hours exposure the cell monolayers are lyzed with passive lysis buffer (Promega) and the firefly luciferase assay carried out using the luciferase assay reagent (Promega) as specified by the manufacturer. Relative luciferase activities are expressed as folds of induction compared to the no drug control. A two-fold induction over background is considered a bona fide TLR7 agonist, dependent on this being a statistically significant increase.
In Table 1, isatoribine, was added to C23 cells for forty-eight hours, and the cells were then harvested and assayed for luciferase activity. Each time-point was assayed in triplicate.
Each time-point was assayed in triplicate.

Series [2] has as its system HCV replicon. In words: HCV replicon-based viral bioassay with supernatants of compound-treated PBMC. It counts as cell-based, hepatitis C virus. On the procedure:
A quantitative assay was developed which is based on measuring the activity of the luciferase reporter gene that was integrated into an HCV replicon. By using this system, interferons from TLR7 agonist-treated PBMCs were measured and their inhibitory activity was assessed using the luciferase reporter replicon.
Human PBMCs isolated from a healthy donor were placed in replicate cell culture wells (5×10^6 cells per well). The PBMCs are incubated in the absence of test compounds at 37° C. in a humidified atmosphere containing 5% CO2 for 24 hours to allow stabilization to the culture conditions, and then the TLR7 ligand or a drug free control is added to replicate wells containing PBMCs from the same donor. The concentrations of TLR7 ligand may be varied to suit the particular experiment, and the PBMC cultures are then incubated at 37° C. in a humidified atmosphere containing 5% CO2 for eight hours. Samples of cell culture supernatant are taken at the eight hour time point (or twenty four hour time point in case of Loxoribine and its prodrugs) from TLR7 ligand treated and control wells and are assayed for interferon-alpha production by ELISA. Supernatants from compound-treated cells and a no-drug control were diluted at 1:10, 1:100, and 1:1000 in RPMI media and applied to a 96-well plate of Huh7 hepatocyte cells containing the luciferase reporter replicon. Cells were incubated for 48 hours at 37° C. in a tissue culture incubator.
After the incubation period, the 96-well plates are washed 2× with PBS and are lysed with passive lysis buffer (Promega). Plates are shaken at room temperature for 20 minutes and standard luciferase assay reagent (Promega) is added to each well by injection and the plate is read on an Lmax luminometer (Molecular Devices).
A supernatant collected from PBMC cells non-exposed to the compound and diluted as specified in the first column was used as a control (“Blank supernatant”). The PBMC cells were isolated from a single blood donor as specified.

Series [3] has as its system human peripheral blood mononuclear cells (PBMC). Nature of the series: PBMC assay of interferon alpha release (masking). It counts as cell-based. The conditions noted are these: Homo sapiens, PBMC, read-out: Amount of INFa relative to that induced by isatoribine at 100 μM. On the procedure: A typical experiment would use human peripheral blood mononuclear cells (PBMC) isolated from a healthy donor and placed in replicate cell culture wells; typically, 2×10^6 to 5×10^6 cells are placed in each well. The PBMC are incubated in the absence of test compounds at 37° C. in a humidified atmosphere containing 5% CO2 for 24 hours to allow stabilization to the culture conditions, and then 100 micromolar isatoribine, the TLR7 ligand and a corresponding TLR7 ligand prodrug are added to separate wells containing PBMC from the same donor; untreated controls are included. The concentrations of TLR7 ligand and TLR7 ligand prodrug may be varied to suit the particular experiment, and the PBMC cultures are then incubated at 37° C. in a humidified atmosphere containing 5% CO2 for a period of time ranging from two hours to 48 hours. Samples of cell culture supernate media are taken during the incubation. These are assayed for cytokine production by ELISA. Additionally the amount of TLR7 ligand and TLR7 ligand prodrug remaining at the end of the incubation may be assayed by LC-MS. Cytokine production is calculated relative to production in the isatoribine control, following subtraction of the cytokine production in untreated controls.
Thus, if the TLR7 ligand generates more interferon alpha (a conveniently measured cytokine) than does the corresponding TLR7 ligand prodrug after a similar duration of exposure and concentration, the TLR7 ligand prodrug may be deemed a “masked” TLR7 ligand prodrug.

Series [4] relates to HCV. Conditions: treatment of HCV, Pockros et al., Gastroenterology 2003; cited from earlier work.
The subject of series [5] is interferon alpha. In words: Interferon alpha plasma concentrations in mice. It counts as in vivo, mouse. An excerpt:
Not only can one measure the plasma concentrations of isatoribine arising from oral administration of the said prodrug(s) but also the extensive immunological research conducted in the mouse has provided reagents suitable for measuring the levels of interferon alpha, a cytokine of interest reflecting one of the desired biologic activities of isatoribine.

Series [6] can be described thus: Toxicology studies, GI tolerance in beagle dogs. It counts as in vivo, beagle dog. The conditions noted are these: dogs, oral val-isatoribine. An excerpt: We compared in the dog the oral toxicology of 21 and 24, and the intravenous toxicology of 21. We observed that the oral toxicology of 24 was much more like intravenous 21 than it was like oral 21.
Where [7] appears, read: isatoribine equivalent applied dose 8.1 mg/kg.
The mark [8] stands for this setting: isatoribine equivalent applied dose 16 mg/kg.
Where [9] appears, read: isatoribine equivalent applied dose 32 mg/kg.
[10] abbreviates: isatoribine equivalent applied dose 64 mg/kg.

The source of these data is US7858637B2, “Administration of TLR7 ligands and prodrugs thereof for treatment of infection by hepatitis C virus” (priority 2003, dated 2010).

Counter-ions that a name gives are not always drawn. Like-named read-outs stand apart in the source and are kept apart here.

One may read the melting point as the temperature, or range, at which the solid turns liquid. On to `CC(=O)OC[C@H]1O[C@@H](n2c(=O)sc3c(=O)[nH]c(N)nc32)[C@H](OC(C)=O)[C@@H]1OC(C)=O`, for which the melting point was 198 to 199 °C.

In the case of `COCCOc1nc(N)c2nc(O)n(Cc3ccccc3)c2n1` [Compound 29, 6-Amino-9-benzyl-2-(2-methoxy-ethoxy)-9H-purin-8-ol], the fold induction at 1 µM in series [1] is 20.8. Further, in series [1], the fold induction at 3.2 µM is 37.3. Also, the fold induction at 10 µM in series [1] is 47.5. For the same compound, the fold induction at 32 µM in series [1] came to 48.4. Also, the HCV replicon inhibition is 100% in series [2] (Table 8 No. 1, PBMC exposed 8 hours to 0.1 μM, a TFA salt, donor FL76418, supernatant dilution 1:10); 73% in series [2] (Table 8 No. 1, PBMC exposed 8 hours to 0.1 μM, a TFA salt, donor FL76418, supernatant dilution 1:100); 0% in series [2] (Table 8 No. 1, PBMC exposed 8 hours to 0.1 μM, a TFA salt, donor FL76418, supernatant dilution 1:1000); 100% in series [2] (Table 8 No. 2, PBMC exposed 8 hours to 0.1 μM, a TFA salt, donor FL76418, supernatant dilution 1:10); 64% in series [2] (Table 8 No. 2, PBMC exposed 8 hours to 0.1 μM, a TFA salt, donor FL76418, supernatant dilution 1:100); 9% in series [2] (Table 8 No. 2, PBMC exposed 8 hours to 0.1 μM, a TFA salt, donor FL76418, supernatant dilution 1:1000). Also, the Emax at 0.1 µM in series [3] (Table 14, 0.1 μM, 24 hours exposure) stood at 128%.

Regarding `CCOCc1nc2c(N)nc3ccccc3c2n1CC(C)(C)O` [Compound 38, 1-(4-amino-2-ethoxymethyl-imidazo[4,5-c]quinolin-1-yl)-2-methyl-propan-2-ol], the HCV replicon inhibition in series [2] (Table 6 No. 1, PBMC exposed 8 hours to 10 μM, donor FL75287, supernatant dilution 1:10) stood at 100%; in series [2] (Table 6 No. 1, PBMC exposed 8 hours to 10 μM, donor FL75287, supernatant dilution 1:100), 98%; in series [2] (Table 6 No. 1, PBMC exposed 8 hours to 10 μM, donor FL75287, supernatant dilution 1:1000), 21%; in series [2] (Table 6 No. 2, PBMC exposed 8 hours to 10 μM, donor FL75287, supernatant dilution 1:10), 100%; in series [2] (Table 6 No. 2, PBMC exposed 8 hours to 10 μM, donor FL75287, supernatant dilution 1:100), 88%; in series [2] (Table 6 No. 2, PBMC exposed 8 hours to 10 μM, donor FL75287, supernatant dilution 1:1000), 6%. For the same compound, the Emax at 100 µM in series [3] (24 h) came to 9%. In addition, in series [4], the “anti-HCV effect at tolerated oral doses” value was “failed to show anti-HCV effect”.

With `CC(C)[C@H](N)C(=O)OC[C@H]1O[C@@H](n2c(=O)sc3c(O)nc(N)nc32)[C@H](O)[C@@H]1O` [Compound 24, 5-Amino-3-(5′-O-L-valinyl-β-D-ribofuranosyl)thiazolo[4,5-d]pyrimidine-2,7-dione Dihydrochloride], in series [5] (mice, oral dosing), the “increase of the magnitude of both the average and peak interferon response over isatoribine” value is given as 100%. In addition, the “levels of isatoribine and interferon relative to those after intravenous isatoribine” value in series [5] (mice, oral, 50 mg/kg isatoribine molar equivalent vs intravenous isatoribine 25 mg/kg, FIG. 1) is given as “approximately 50%”. For the same compound, in series [5] (oral dosing, data of Tables 15, 16 and 17), the “mice with detectable interferon in their plasma” value was 10 of the 30. Also, the “Emesis or loose stool” value in series [6] (setting [7]), in series [6] (setting [8]), in series [6] (setting [9]) and in series [6] (setting [10]) was “Neg” each time. Moreover, the “GI lesions or irritation” value in series [6] (setting [7]), in series [6] (setting [8]), in series [6] (setting [9]), in series [6] (setting [10]), in series [6] (isatoribine equivalent applied dose 130 mg/kg) and in series [6] (isatoribine equivalent applied dose 260 mg/kg) was “Neg” each time. The “GI lesions or irritation” value in series [6] (isatoribine equivalent applied dose 390 mg/kg) is “Neg”. For the same compound, in series [3] (Table 9, 100 μM, 8 hours exposure, same blood donor), the Emax at 100 µM is 1%.

Regarding `CC(C)[C@H](N)C(=O)OC[C@H]1O[C@@H](n2c(=O)sc3c(=O)[nH]c(N)nc32)[C@H](O)[C@@H]1O` (as salt: hydrochloride) [Compound 24, 5-Amino-3-(5′-O-L-valinyl-β-D-ribofuranosyl)thiazolo[4,5-d]pyrimidine-2,7-dione Dihydrochloride], the melting point was 166 to 168 °C (dec.).

Turning to `Nc1ncc2sc(=O)n([C@@H]3O[C@H](CO)[C@@H](O)[C@H]3O)c2n1`, the melting point was 220 °C (dec.).

The compound `CC(=O)O[C@@H]1[C@H](OC(C)=O)[C@@H](CO)O[C@H]1n1c(=O)sc2cnc(N)nc21` [Compound 93, 5-Amino-3-(2′,3′-di-O-acetyl-β-D-ribofuranosyl)-3H-thiazolo[4,5-d]pyrimidin-2-one] showed a melting point of 109 to 111 °C. The Emax at 100 µM in series [3] (Table 9, 100 μM, 24 hours exposure, same blood donor) came to 0%.
